Values after ≈ are worked out from the molar mass of the structure shown.
What was measured:
[1] = test system: pinch skin graft from male DBA/2 donors; assay: Survival time of pinch skin graft; assay type: in vivo, male BALB/c mice (recipients); settings: intraperitoneally; mean ± S.D.
Experimental: (§1) Immunosuppressive activity was evaluated in an in vitro standard pharmacological test procedure to measure lymphocyte proliferation (LAF) and in two in vivo standard pharmacological test procedures. The first in vivo procedure was a popliteal lymph node (PLN) test procedure which measured the effect of compounds of this invention on a mixed lymphocyte reaction and the second in vivo procedure evaluated the survival time of a pinch skin graft.
The second in vivo test procedure is designed to determine the survival time of pinch skin graft from male DBA/2 donors transplanted to male BALB/c recipients. The method is adapted from Billingham R. E. and Medawar P. B., J. Exp. Biol. 28:385-402, (1951). Briefly, a pinch skin graft from the donor is grafted on the dorsum of the recipient as a homograft, and an autograft is used as control in the same region. […] Untreated recipients serve as rejection control. The graft is monitored daily and observations are recorded until the graft becomes dry and forms a blackened scab. This is considered as the rejection day. The mean graft survival time (number of days±S.D.) of the drug treatment group is compared with the control group.

[2] = test system: Candida albicans ATCC 38248; assay: Antifungal plate test, inhibition of Candida albicans ATCC 38248; assay type: cell-based; settings: for MIC: Candida albicans, ATCC38248, read-out: MIC to inhibit growth
Experimental: (§2) The following represents the typical procedure used. Compound to be tested was placed on sterile dried 1/4" plate disks, and allowed to dry. Agar plates were seeded with fungi and allowed to solidify. The impregnated disks were placed on the seeded Agar surface and incubated for the time required for the particular culture. Results are expressed in MIC (μg/ml) to inhibit growth.

[3] = test system: cells from the thymus of normal BALB/c mice; assay: Comitogen-induced thymocyte proliferation procedure (LAF); assay type: cell-based; settings: in vitro, rapamycin 1.0, 72 hours culture with PHA and IL-1
Experimental: as §1
Briefly, cells from the thymus of normal BALB/c mice are cultured for 72 hours with PHA and IL-1 and pulsed with tritiated thymidine during the last six hours. […] Cells are harvested and incorporated; radioactivity is determined. Inhibition of lymphoproliferation is assessed in percent change in counts per minute from non-drug treated controls. The results are expressed by the following ratio: [formula]

[4] = test system: Candida albicans ATCC 10231; assay: Antifungal plate test, inhibition of Candida albicans ATCC 10231; assay type: cell-based; settings: for MIC: Candida albicans, ATCC10231, read-out: MIC to inhibit growth
Experimental: as §2

Candida albicans 3669 = assay: Antifungal plate test, inhibition of Candida albicans 3669; assay type: cell-based; settings: strain 3669; for MIC: Candida albicans, read-out: MIC to inhibit growth
Experimental: as §2

[5] = test system: Candida albicans ATCC 38246; assay: Antifungal plate test, inhibition of Candida albicans ATCC 38246; assay type: cell-based; settings: for MIC: Candida albicans, ATCC38246, read-out: MIC to inhibit growth
Experimental: as §2

[6] = test system: Candida albicans ATCC 38247; assay: Antifungal plate test, inhibition of Candida albicans ATCC 38247; assay type: cell-based; settings: for MIC: Candida albicans, ATCC38247, read-out: MIC to inhibit growth
Experimental: as §2

[7] = alone or in combination with picibanil; cited from earlier work
transplant rejection = settings: cited from earlier work
[8] = test system: mixed lymphocyte reaction in popliteal lymph node; assay: In vivo popliteal lymph node (PLN) test procedure; parameters: species or system C3H mice (BALB/c donors); settings: for PLN Assay (ratio): in vivo, rapamycin 1.0, p.o. daily Day 0 to Day 4
Experimental: as §1
A mixed lymphocyte reaction (MLR) occurs when lymphoid cells from genetically distinct animals are combined in tissue culture. Each stimulates the other to undergo blast transformation which results in increased DNA synthesis that can be quantified by the incorporation of tritiated thymidine. Since stimulating a MLR is a function of disparity at Major Histocompatibility antigens, an in vivo popliteal lymph node (PLN) test procedure closely correlates to host vs. graft disease. Briefly, irradiated spleen cells from BALB/c donors are injected into the right hind foot pad of recipient C3H mice. The drug is given daily, p.o. from Day 0 to Day 4. On Day 3 and Day 4, tritiated thymidine is given i.p., b.i.d. On Day 5, the hind popliteal lymph nodes are removed and dissolved, and radioactivity counted. The corresponding left PLN serves as the control for the PLN from the injected hind foot. Percent suppression is calculated using the non-drug treated animals as allogenic control. […] Results are expressed by the following ratio: [formula]

IgE-like antibodies = settings: in vivo; cited from earlier work
multiple sclerosis = settings: in vivo; cited from earlier work
Candida albicans = settings: in vitro and in vivo; cited from earlier work

Compound	Skin Graft Assay (days + SD), mean graft survival time [1] [days]	MIC to inhibit growth [2] [µg/mL]	LAF Assay (ratio) [3]	MIC to inhibit growth [4] [µg/mL]	MIC to inhibit growth (Candida albicans 3669) [µg/mL]	MIC to inhibit growth [5] [µg/mL]	MIC to inhibit growth [6] [µg/mL]	antitumor activity [7]	inhibition of transplant rejection / immunosuppressive effect (transplant rejection)	MIC [2] [µg/mL]	Percent suppression (PLN) ([8]; 6 mg/kg, p.o.) [%]	PLN Assay (ratio) [8]	inhibition of formation of IgE-like antibodies (IgE-like antibodies)	MIC [4] [µg/mL]	MIC (Candida albicans 3669) [µg/mL]	MIC [5] [µg/mL]	effect in experimental allergic encephalomyelitis model (multiple sclerosis)	antifungal activity (Candida albicans)	MIC [6] [µg/mL]
1,2,3,4-Tetrahydrorapamycin [Example 2]	7.0 ± 0.9	0.0125	0.036	0.006	0.0125	0.05	0.006												
CO[C@H]1C[C@@H]2CC[C@@H](C)[C@@](O)(O2)C(=O)C(=O)N2CCCC[C@H]2C(=O)O[C@H]([C@H](C)C[C@@H]2CC[C@@H](O)[C@H](OC)C2)CC(=O)[C@H](C)/C=C(\C)[C@@H](O)[C@@H](OC)C(=O)[C@H](C)C[C@H](C)/C=C/C=C/C=C/1C [Rapamycin, rapamycin]	12.0 ± 1.7							antitumor activity	effective in inhibiting transplant rejection	0.006 (≈ 0.00656 µM)	86	1.0	effectively inhibited the formation of IgE-like antibodies	0.003 (≈ 0.00328 µM)	0.025 (≈ 0.0273 µM)	0.025 (≈ 0.0273 µM)	effective in the experimental allergic encephalomyelitis model	antifungal activity, particularly against Candida albicans, both in vitro and in vivo	0.003 (≈ 0.00328 µM)
CO[C@H]1C[C@@H]2CC[C@@H](C)[C@@](O)(O2)C(=O)C(=O)N2CCCC[C@H]2C(=O)O[C@H]([C@H](C)C[C@@H]2CC[C@@H](O)[C@H](OC)C2)CC(=O)[C@H](C)/C=C(\C)[C@@H](O)[C@@H](OC)C(=O)[C@H](C)C[C@H](C)CC/C=C/C=C/1C [Example 1, 1,2-Dihydrorapamycin]	7.3 ± 0.9									0.2 (≈ 0.218 µM)		-1.67		0.4 (≈ 0.437 µM)	0.2 (≈ 0.218 µM)	0.2 (≈ 0.218 µM)			> 0.4
C=CC[C@@H]1/C=C(\C)C[C@H](C)C[C@H](OC)[C@H]2O[C@@](O)(C(=O)C(=O)N3CCCC[C@H]3C(=O)O[C@H](/C(C)=C/[C@@H]3CC[C@@H](O)[C@H](OC)C3)[C@H](C)[C@@H](O)CC1=O)[C@H](C)C[C@@H]2OC [FK-506]									effective as immunosuppressive agents										
